# Measured values: patent US11807644B2 (PMV Pharmaceuticals, Inc., priority 2020, dated 2023)
# Target: T1, recombinant His-tag Y220C p53 DBD protein (Homo sapiens, UniProt P04637, Y220C)
# T1 construct: recombinant His-tag Y220C p53 DBD protein (amino acids #˜94-312)
# Test: In vitro DNA binding activity assay (TR-FRET): binding of His-tag Y220C p53 DBD to biotin-labeled consensus DNA
# Assay type: biochemical
# Settings: SC150 = concentration to increase DNA binding by […], His-tag Y220C p53 DBD, biotin-labeled consensus DNA
row,Compound,Y220C SC150 (μM)
1,CN1CCC(n2ccc(C(=O)NCc3nc(-c4cc5c(N[C@@H]6CCN(C)C[C@@H]6F)cccc5n4CC(F)(F)F)no3)c2)C1 (some centres unmarked) [Compound 351B],* (* = 0 μM ≤ SC150 < 0.1 μM)
2,CC(C)(C)n1cc(C(=O)NCc2nc(-c3cc4c(N[C@H]5CCCNC5)cccc4n3CC(F)(F)F)no2)cn1 [Compound 353B],* (* = 0 μM ≤ SC150 < 0.1 μM)
3,"CC(C)(C)n1ccc(C(=O)NCc2nc(-c3cc4c(N[C@H]5CC[C@H](F)CC5)cccc4n3CC(F)(F)F)no2)c1 [Compound 354B, 1-tert-butyl-N-{[3-(4-{[(1r,4r)-4-fluorocyclohexyl]amino}-1-(2,2,2-trifluoroethyl)-1H-indol-2-yl)-1,2,4-oxadiazol-5-yl]methyl}-1H-pyrrole-3-carboxamide]",* (* = 0 μM ≤ SC150 < 0.1 μM)
4,"CC(C)(C)n1ccc(C(=O)NCc2nc(-c3cc4c(N[C@H]5CCC(=O)NC5)cccc4n3CC(F)(F)F)no2)c1 [Compound 356B, 1-tert-butyl-N-{[3-(4-{[(3S)-6-oxopiperidin-3-yl]amino}-1-(2,2,2-trifluoroethyl)-1H-indol-2-yl)-1,2,4-oxadiazol-5-yl]methyl}-1H-pyrrole-3-carboxamide]",* (* = 0 μM ≤ SC150 < 0.1 μM)
5,"CN1CCC(n2ccc(C(=O)NCc3nc(-c4cc5c(N[C@@H]6CCN(C)C[C@@H]6F)cccc5n4CC(F)(F)F)no3)c2)CC1 [Compound 363B, N-{[3-(4-{[(3S,4R)-3-fluoro-1-methylpiperidin-4-yl]amino)-1-(2,2,2-trifluoroethyl)-1H-indol-2-yl)-1,2,4-oxadiazol-5-yl]methyl)-1-(1-methylpiperidin-4-yl)-1H-pyrrole-3-carboxamide]",* (* = 0 μM ≤ SC150 < 0.1 μM)
6,"CCN1CC[C@@H](Nc2cccc3c2cc(-c2noc(CNC(=O)c4ccn(CC(=O)N(C)C)c4)n2)n3CC(F)(F)F)[C@@H](F)C1 [Compound 365B, 1-[(dimethylcarbamoyl)methyl]-N-{[3-(4-{[(3S,4R)-1-ethyl-3-fluoropiperidin-4-yl]amino}-1-(2,2,2-trifluoroethyl)-1H-indol-2-yl)-1,2,4-oxadiazol-5-yl]methyl}-1H-pyrrole-3-carboxamide]",* (* = 0 μM ≤ SC150 < 0.1 μM)
7,"CC(C)(C)n1ccc(C(=O)NCc2nc(-c3cc4c(NC5CCn6ccnc6C5)cccc4n3CC(F)(F)F)no2)c1 (centres unmarked) [Compound 366B, 1-tert-butyl-N-({3-[4-({5H,6H, 7H,8H-imidazo[1,2-a]pyridin-7-yl}amino)-1-(2,2,2-trifluoroethyl)-1H-indol-2-yl]-1,2,4-oxadiazol-5-yl}methyl)-1H-pyrrole-3-carboxamide]",* (* = 0 μM ≤ SC150 < 0.1 μM)
8,"CC(C)(C)n1ccc(C(=O)NCc2nc(-c3cc4c(N[C@@H]5CCC(=O)NC5)cccc4n3CC(F)(F)F)no2)c1 [Compound 367B, 1-tert-butyl-N-{[3-(4-{[(3R)-6-oxopiperidin-3-yl]amino}-1-(2,2,2-trifluoroethyl)-1H-indol-2-yl)-1,2,4-oxadiazol-5-yl]methyl}-1H-pyrrole-3-carboxamide]",* (* = 0 μM ≤ SC150 < 0.1 μM)
9,"Cc1nc2c(s1)CC(Nc1cccc3c1cc(-c1noc(CNC(=O)c4ccn(C(C)(C)C)c4)n1)n3CC(F)(F)F)CC2 (centres unmarked) [Compound 368B, 1-tert-butyl-N-[(3-{4-[(2-methyl-4,5,6,7-tetrahydro-1,3-benzothiazol-6-yl)amino]-1-(2,2,2-trifluoroethyl)-1H-indol-2-yl}-1,2,4-oxadiazol-5-yl)methyl]-1H-pyrrole-3-carboxamide]",*** (*** = 0.5 μM ≤ SC150 < 1 μM)
10,"CN1CC[C@@H](Nc2cccc3c2cc(-c2noc(CNC(=O)c4cnn(C5CCC5)c4)n2)n3CC(F)(F)F)[C@@H](F)C1 [Compound 369B, 1-cyclobutyl-N-{[3-(4-{1[(3S,4R)-3-fluoro-1-methylpiperidin-4-yl]amino}-1-(2,2,2-trifluoroethyl)-1H-indol-2-yl)-1,2,4-oxadiazol-5-yl]methyl}-1H-pyrazole-4-carboxamide]",* (* = 0 μM ≤ SC150 < 0.1 μM)
11,"CN1CC[C@@H](Nc2cccc3c2cc(-c2noc(CNC(=O)c4ccn(C5(C)CCOCC5)c4)n2)n3CC(F)(F)F)[C@@H](F)C1 [Compound 371B, N-{[3-(4-{[(3S,4R)-3-fluoro-1-methylpiperidin-4-yl]amino}-1-(2,2,2-trifluoroethyl)-1H-indol-2-yl)-1,2,4-oxadiazol-5-yl]methyl}-1-(4-methyloxan-4-yl)-1H-pyrrole-3-carboxamide]",* (* = 0 μM ≤ SC150 < 0.1 μM)
12,"CN1CC[C@@H](Nc2cccc3c2cc(-c2noc(CNC(=O)c4cnn(C5COC5)c4)n2)n3CC(F)(F)F)[C@@H](F)C1 [Compound 372B, N-{[3-(4-{[(3S,4R)-3-fluoro-1-methylpiperidin-4-yl]amino}-1-(2,2,2-trifluoroethyl)-1H-indol-2-yl)-1,2,4-oxadiazol-5-yl]methyl}-1-(oxetan-3-yl)-1H-pyrazole-4-carboxamide]",* (* = 0 μM ≤ SC150 < 0.1 μM)
13,"COc1ccc(NCc2nc(-c3cc4c(N[C@@H]5CCN(C)C[C@@H]5F)cccc4n3CC(F)(F)F)no2)nc1 [Compound 378B, N-[(3S,4R)-3-fluoro-1-methylpiperidin-4-yl]-2-(5-{[(5-methoxypyridin-2-yl)amino]methyl}-1,2,4-oxadiazol-3-yl)-1-(2,2,2-trifluoroethyl)-1H-indol-4-amine]",* (* = 0 μM ≤ SC150 < 0.1 μM)
14,"CN1CC[C@@H](Nc2cccc3c2cc(-c2noc(CNC(=O)c4ccn(C5COC5)c4)n2)n3CC(F)(F)F)[C@@H](F)C1 [Compound 379B, N-{[3-(4-{[(3S,4R)-3-fluoro-1-methylpiperidin-4-yl]amino}-1-(2,2,2-trifluoroethyl)-1H-indol-2-yl)-1,2,4-oxadiazol-5-yl]methyl}-1-(oxetan-3-yl)-1H-pyrrole-3-carboxamide]",* (* = 0 μM ≤ SC150 < 0.1 μM)
15,"COc1ccc(NCc2nc(-c3cc4c(N[C@@H]5CCN(C)C[C@@H]5F)cccc4n3CC(F)(F)F)no2)cc1 [Compound 380B, N-[(3S,4R)-3-fluoro-1-methylpiperidin-4-yl]-2-(5-{[(4-methoxyphenyl)amino]methyl}-1,2,4-oxadiazol-3-yl)-1-(2,2,2-trifluoroethyl)-1H-indol-4-amine]",* (* = 0 μM ≤ SC150 < 0.1 μM)
16,"COCC(C)(C)n1ccc(C(=O)NCc2nc(-c3cc4c(N[C@@H]5CCN(C)C[C@@H]5F)cccc4n3CC(F)(F)F)no2)c1 [Compound 383B, N-{[3-(4-{[(3S,4R)-3-fluoro-1-methylpiperidin-4-yl]amino}-1-(2,2,2-trifluoroethyl)-1H-indol-2-yl)-1,2,4-oxadiazol-5-yl]methyl}-1-(1-methoxy-2-methylpropan-2-yl)-1H-pyrrole-3-carboxamide]",* (* = 0 μM ≤ SC150 < 0.1 μM)
17,"CN1CC[C@@H](Nc2cccc3c2cc(-c2noc(CNC(=O)c4ccn(C5(C)COC5)c4)n2)n3CC(F)(F)F)[C@@H](F)C1 [Compound 386B, N-{[3-(4-{[(3S,4R)-3-fluoro-1-methylpiperidin-4-yl]amino}-1-(2,2,2-trifluoroethyl)-1H-indol-2-yl)-1,2,4-oxadiazol-5-yl]methyl}-1-(3-methyloxetan-3-yl)-1H-pyrrole-3-carboxamide]",* (* = 0 μM ≤ SC150 < 0.1 μM)
18,"CN1CC[C@@H](Nc2cccc3c2cc(-c2noc(CNc4ccn(C(C)(C)C)n4)n2)n3CC(F)(F)F)[C@@H](F)C1 [Compound 390B, 2-(5-{[(1-tert-butyl-1H-pyrazol-3-yl)amino]methyl}-1,2,4-oxadiazol-3-yl)-N-[(3S,4R)-3-fluoro-1-methylpiperidin-4-yl]-1-(2,2,2-trifluoroethyl)-1H-indol-4-amine]",* (* = 0 μM ≤ SC150 < 0.1 μM)
19,"COCC(C)(C)n1cc(C(=O)NCc2nc(-c3cc4c(N[C@@H]5CCN(C)C[C@@H]5F)cccc4n3CC(F)(F)F)no2)cn1 [Compound 391B, N-{[3-(4-{[(3S,4R)-3-fluoro-1-methylpiperidin-4-yl]amino}-1-(2,2,2-trifluoroethyl)-1H-indol-2-yl)-1,2,4-oxadiazol-5-yl]methyl}-1-(1-methoxy-2-methylpropan-2-yl)-1H-pyrazole-4-carboxamide]",* (* = 0 μM ≤ SC150 < 0.1 μM)
20,"CC(C)(C)N1CC[C@@H](Nc2cccc3c2cc(-c2noc(CNC(=O)c4ccn(C(C)(C)C)c4)n2)n3CC(F)(F)F)[C@@H](F)C1 [Compound 393B, 1-tert-butyl-N-{[3-(4-{[(3S,4R)-1-tert-butyl-3-fluoropiperidin-4-yl]amino}-1-(2,2,2-trifluoroethyl)-1H-indol-2-yl)-1,2,4-oxadiazol-5-yl]methyl}-1H-pyrrole-3-carboxamide]",* (* = 0 μM ≤ SC150 < 0.1 μM)
21,"CC(C)(C)N1CC[C@@H](Nc2cccc3c2cc(-c2noc(CNC(=O)c4ccn(C(C)(C)C)c4)n2)n3CC(F)(F)F)[C@H](F)C1 [Compound 394B, 1-tert-butyl-N-{[3-(4-{[(3R,4R)-1-tert-butyl-3-fluoropiperidin-4-yl]amino}-1-(2,2,2-trifluoroethyl)-1H-indol-2-yl)-1,2,4-oxadiazol-5-yl]methyl}-1H-pyrrole-3-carboxamide]",* (* = 0 μM ≤ SC150 < 0.1 μM)
22,"CN1CC[C@@H](Nc2cccc3c2cc(-c2noc(CNc4ccnn4C(C)(C)C)n2)n3CC(F)(F)F)[C@@H](F)C1 [Compound 396B, 2-(5-{[(1-tert-butyl-1H-pyrazol-5-yl)amino]methyl}-1,2,4-oxadiazol-3-yl)-N-[(3S,4R)-3-fluoro-1-methylpiperidin-4-yl]-1-(2,2,2-trifluoroethyl)-1H-indol-4-amine]",** (** = 0.1 μM ≤ SC150 < 0.5 μM)
23,"Cn1ccc(C(=O)NCc2nc(-c3cc4c(N[C@@H]5CCN(C(C)(C)C)C[C@@H]5F)cccc4n3CC(F)(F)F)no2)c1 [Compound 397B, N-{[3-(4-{[(3S,4R)-1-tert-butyl-3-fluoropiperidin-4-yl]amino}-1-(2,2,2-trifluoroethyl)-1H-indol-2-yl)-1,2,4-oxadiazol-5-yl]methyl}-1-methyl-1H-pyrrole-3-carboxamide]",* (* = 0 μM ≤ SC150 < 0.1 μM)
